From US8202513B2, “Aryl potassium channel blockers and uses thereof” (Bionomics Limited, priority 2007, dated 2012)

Columns and labels:
Kv1.3 channel = Kv1.3 channel (Homo sapiens, UniProt P22001); settings: cited from earlier work
hKv1.5 = hKv1.5 (Homo sapiens, UniProt P22460); assay: Inhibition of Kv1.5 currents, planar patch clamp (selectivity); type: cell-based; settings: CHO cells stably transfected with hKv1.5
Procedure: (§1) EC50 values for inhibition of Kv1.1 and Kv1.5 currents were determined by the method according to Schmitz et al (2005) Molecular Pharmacology 68, 1254-1270 with the following differences: • 1. Chinese Hamster Ovary (CHO) cells stably transfected with hKv1.1 and hKv1.5 were used in place of transfected rat L929 cells. • 2. All electrophysiology was performed using planar patch clamp (Port-A-Patch, Nanion Technologies Gmbh, Munich) in contrast to conventional patch clamp. • 3. EC50 values shown were determined from averaged dose response data obtained from 3 or more cells.

hKv1.1 = target: T1, hKv1.1 (Homo sapiens, UniProt Q09470); assay: Inhibition of Kv1.1 currents, planar patch clamp (selectivity); type: cell-based; settings: CHO cells stably transfected with hKv1.1
T1 construct: expressed in transfected cells; host or cells: CHO cells, stably transfected
Procedure: as §1

human Kv1.3 ion channel = target: T2, human Kv1.3 ion channel (Homo sapiens, UniProt P22001); assay: Inhibition of Kv1.3 currents, planar patch clamp; type: cell-based; settings: Human Jurkat cells or CHO cells stably transfected with hKv1.3; averaged dose response data from 3 or more cells
T2 construct: Human Jurkat cells (which endogenously express hKv1.3) or Chinese Hamster Ovary (CHO) cells stably transfected with hKv1.3 were used; endogenous in cells; host or cells: Human Jurkat cells (endogenous) or CHO cells stably transfected with hKv1.3
Procedure: Potency of compounds to inhibit the human Kv1.3 ion channel was determined as follows:
as §1, with “Kv1.3” for “Kv1.1 and Kv1.5”, “1. Human Jurkat cells (which endogenously express hKv1.3) or” for “1.”, “hKv1.3” for “hKv1.1 and hKv1.5”

T2 sequence (P22001 whole entry): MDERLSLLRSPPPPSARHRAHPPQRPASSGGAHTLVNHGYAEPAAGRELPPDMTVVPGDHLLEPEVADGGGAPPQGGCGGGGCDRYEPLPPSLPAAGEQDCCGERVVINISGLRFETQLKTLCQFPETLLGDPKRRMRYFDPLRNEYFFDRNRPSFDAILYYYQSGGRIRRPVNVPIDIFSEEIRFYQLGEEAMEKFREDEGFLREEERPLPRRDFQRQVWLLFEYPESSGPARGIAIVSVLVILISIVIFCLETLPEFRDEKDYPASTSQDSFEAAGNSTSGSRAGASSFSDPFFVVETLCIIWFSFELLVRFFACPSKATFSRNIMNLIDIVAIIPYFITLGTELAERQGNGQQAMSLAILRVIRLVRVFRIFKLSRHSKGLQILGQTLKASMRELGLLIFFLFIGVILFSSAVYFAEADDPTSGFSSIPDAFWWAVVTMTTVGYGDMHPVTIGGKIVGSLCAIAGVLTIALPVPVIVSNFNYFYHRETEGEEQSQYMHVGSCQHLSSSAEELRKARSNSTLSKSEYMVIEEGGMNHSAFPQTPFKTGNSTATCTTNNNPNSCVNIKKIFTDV
Kv1.3 channel, sequence (P22001 whole entry): as above
T1 sequence (Q09470 whole entry): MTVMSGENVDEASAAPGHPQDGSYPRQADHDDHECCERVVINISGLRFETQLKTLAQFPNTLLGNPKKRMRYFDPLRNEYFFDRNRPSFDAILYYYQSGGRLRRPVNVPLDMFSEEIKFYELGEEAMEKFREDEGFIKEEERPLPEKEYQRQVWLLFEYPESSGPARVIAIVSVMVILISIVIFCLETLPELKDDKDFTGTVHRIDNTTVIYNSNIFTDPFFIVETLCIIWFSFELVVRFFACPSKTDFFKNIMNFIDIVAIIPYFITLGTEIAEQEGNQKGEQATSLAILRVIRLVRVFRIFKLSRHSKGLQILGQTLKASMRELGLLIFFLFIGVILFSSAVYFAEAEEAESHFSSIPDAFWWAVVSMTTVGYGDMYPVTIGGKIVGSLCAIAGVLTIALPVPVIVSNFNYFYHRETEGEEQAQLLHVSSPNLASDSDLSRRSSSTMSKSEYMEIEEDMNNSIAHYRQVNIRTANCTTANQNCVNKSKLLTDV
hKv1.5, sequence (P22460 whole entry): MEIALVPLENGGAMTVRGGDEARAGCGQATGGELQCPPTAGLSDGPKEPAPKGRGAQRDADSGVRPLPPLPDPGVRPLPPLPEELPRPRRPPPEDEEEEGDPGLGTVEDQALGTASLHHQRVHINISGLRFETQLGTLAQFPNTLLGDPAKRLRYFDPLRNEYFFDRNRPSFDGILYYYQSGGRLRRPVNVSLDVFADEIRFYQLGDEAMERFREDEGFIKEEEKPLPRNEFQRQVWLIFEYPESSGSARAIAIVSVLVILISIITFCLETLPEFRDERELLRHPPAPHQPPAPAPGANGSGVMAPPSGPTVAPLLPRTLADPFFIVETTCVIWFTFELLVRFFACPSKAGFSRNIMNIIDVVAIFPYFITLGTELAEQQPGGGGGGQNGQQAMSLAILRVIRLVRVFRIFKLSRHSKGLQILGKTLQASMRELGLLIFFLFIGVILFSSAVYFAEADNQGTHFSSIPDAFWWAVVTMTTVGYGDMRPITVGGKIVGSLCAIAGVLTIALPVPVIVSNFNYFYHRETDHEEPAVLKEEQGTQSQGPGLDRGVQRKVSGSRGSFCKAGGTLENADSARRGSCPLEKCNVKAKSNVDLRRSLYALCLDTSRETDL

Row | Compound | EC50 (human Kv1.3 ion channel) [nM] | further results
1 | COc1c2occc2cc2ccc(=O)oc12 [8-Methoxypsoralen (8-MOP), 8-Methoxypsoralen] |  | blocking activity on the Kv1.3 channel (Kv1.3 channel): weak blocking activity
2 | COc1c(Cl)c(C)c(C(C)=O)c(OCCc2ccccn2)c1OCCC(C)c1ccc(F)cc1 (stereo not shown) [Example 7d, 1-[3-Chloro-5-[3-(4-fluoro-phenyl)-butoxy]-4-methoxy-2-methyl-6-(2-pyridin-2-yl-ethoxy)-phenyl]-ethanone] | < 50 | selectivity for Kv1.3 over Kv1.5 (hKv1.5): 37 fold; Selectivity for Kv1.3 over Kv1.1 (hKv1.1): 45 fold
3 | COc1c(Cl)c(C)c(C(C)=O)c(OCCN2CCOCC2)c1OCCC(C)c1ccc(F)cc1 (stereo not shown) [Example 8b, 1-[3-Chloro-5-[3-(4-fluoro-phenyl)-butoxy]-4-methoxy-2-methyl-6-(2-morpholin-4-yl-ethoxy)-phenyl]-ethanone] | < 50 | selectivity for Kv1.3 over Kv1.5 (hKv1.5): 35 fold; Selectivity for Kv1.3 over Kv1.1 (hKv1.1): 33 fold
4 | COc1c(Cl)c(C)c(C(C)=O)c(OCCN(C)C)c1OCCC(C)c1ccc(F)cc1 (stereo not shown) [Example 40, 1-{3-Chloro-6-(2-dimethylamino-ethoxy)-5-[3-(4-fluoro-phenyl)-butoxy]-4-methoxy-2-methyl-phenyl}-ethanone] | 50 to 150 | 
5 | COc1c(Cl)c(C)c(C(C)=O)c(OCCn2ccnc2)c1OCCC(C)c1ccc(F)cc1 (stereo not shown) [Example 41, 1-[3-Chloro-5-[3-(4-fluoro-phenyl)-butoxy]-6-(2-imidazol-1-yl-ethoxy)-4-methoxy-2-methyl-phenyl]-ethanone] | < 50 | 
6 | COc1c(Cl)c(C)c(C(C)=O)c(OCCN2CCOC[C@@H]2C)c1OCCC(C)c1ccc(F)cc1 (stereo partly drawn) [Example 42, 1-{3-Chloro-5-[3-(4-fluoro-phenyl)-butoxy]-4-methoxy-2-methyl-6-[2-((S)-3-methyl-morpholin-4-yl)-ethoxy]-phenyl}-ethanone] | 50 to 150 | 
7 | COc1c(C(C)=O)c(O)c(OC)c2occc12 [Khellinone] |  | blocking activity on the Kv1.3 channel (Kv1.3 channel): weak blocking activity
8 | COc1cc(O)c(C(C)=O)c(OCCCCOc2ccccc2)c1 [reference compound] | 150 to 300 | 
9 | CCCc1c(NCC)ccc(C(C)=O)c1OCCCc1ccccc1 [reference compound] | > 300 | 
10 | C=CCc1c(NC(C)=O)ccc(C(C)=O)c1OCCCc1ccccc1 [reference compound] | > 300 | 
11 | COc1cc(OCCCCOc2ccccc2)c(C(C)=O)c(OCCN2CCOCC2)c1 [reference compound] | > 300 | 
12 | CC(=O)c1c(OCCCCOc2ccccc2)cccc1OCCN1CCOCC1 [reference compound] | > 300 | 
13 | CC(=O)c1c(O)cccc1OCCCCOc1ccccc1 [reference compound] | > 300 | 
14 | CCCC(=O)c1ccc(NC(C)=O)cc1OCCCc1ccccc1 [reference compound] | > 300 | 
15 | CC(=O)Nc1ccc(C(C)=O)c(OCCCc2ccccc2)c1 [reference compound] | > 300 | 
16 | CC(=O)c1ccc(N)cc1OCCCc1ccccc1 [reference compound] | > 300 | 
17 | COc1ccc(C(C)=O)c(NCCCc2ccccc2)c1 [reference compound] | > 300 | 
18 | COc1ccc(C(C)=O)c(NC(=O)CCc2ccccc2)c1 [reference compound] | > 300 | 
